IC50 data for 14 molecules are collected here from patent EP1377579B1 (Aventis Pharmaceuticals Inc., priority 2000, dated 2002).

Counter-ions that a name gives are not always drawn.

As a reminder, the IC50 is the concentration needed to halve the response being measured.

Assay [1] addresses cdk4/cyclin D1 (Homo sapiens, UniProt P11802). Kind of assay: Cyclin-dependent kinase assay, cdk4/cyclin D1. Format: biochemical. Conditions: cyclin D1/cdk4; GST-pRb substrate, 10 µM ATP.
The test system of assay [2] is MDA-MB-435. Nature of the assay: In vitro proliferation assay (MTT), MDA-MB-435. Format: cell-based, human. Conditions: Homo sapiens, MDA-MB-435, MTT assay; value (SD, n) where given; read-out: MB-435 Breast (IC50 µM). The gist of the method:
(§1)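 A570 readout of DMSO-solubilized MTT formazan after 3-day compound exposure; IC50 from raw data. Cells plated 1000–2500/well and recovered overnight before dosing.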
(In general: Tetrazolium dyes change colour on reduction, which living cells bring about.)

Assay [3] has as its system PC-3. Nature of the assay: In vitro proliferation assay (MTT), PC-3. The class given is cell-based, human. Conditions: Homo sapiens, PC-3, MTT assay; value (SD, n) where given; read-out: PC-3 Prostate (IC50 µM). The gist of the method:
as §1

Assay [4] has as its target cdk1/cyclin B (Homo sapiens, UniProt P06493). Nature of the assay: Cyclin-dependent kinase assay, cdk1/cyclin B. Conditions: CDK1 IC50, nM, Histone H1, 10 µM ATP.
Description: The IC50 values for cdk1/cyclin B, cdk2/cyclin E, and cdk4/cyclin D1 inhibition are determined using the following methods: • The cdk1 sequence (accession number Y00272) is amplified by PCR and cloned into the BamHI and SalI sites of pFASTBAC1 (Life Technologies).
The cyclin B1 sequence (accession number M25753) is amplified by PCR and cloned into the BamHI and SalI sites of pFASTBAC1 (Life Technologies).
The insect cell (Sf9) expression is optimized for each of the CDK/cyclin pairs according to the manufacturer's protocols (Life Technologies). For cdk4-HA/cyclin D1-His6 an infection of 0.1 multiplicity of infection (MOI) for 48 hours gives the best expression levels of the complex as well as activity.
The viruses are added to the cells and the culture is incubated at 27°C for the desired time. The cells are harvested by centrifugation at 3000 rpm for 10 minutes. The cells are snap frozen on dry ice and stored at - 80°C.
Cell extracts are made following a standard procedure. The cell pellet is resuspended in lysis buffer (50 mM HEPES, pH 8.0, 10 mM MgCl2, 1 mM DTT, 2.5 mM EGTA, 1 mM EDTA, 10 mM β-glycerophosphate, 1 mM sodium vanadate, 1 mM sodium fluoride, 1 x Protease inhibitor cocktail). The cells are lysed using the microfluidizer (Microfluidics) for 20 minutes. Cell debris is removed by centrifugation at 100,000 x g. The cell extracts are aliquoted in 1 ml aliquots, frozen on dry ice, and stored at -80°C.
The kinase reactions are performed following a standard procedure. The enzyme and inhibitor are diluted in kinase buffer (50 mM HEPES, pH 8.0, 10 mM MgCl2, 2.5 mM EGTA, 10 mM β-glycerophosphate, 1 mM sodium vanadate, 1 mM sodium fluoride, and 1 mM DTT) and pre-incubated for 30 minutes. […] The cdk1 enzyme activity is assayed using Histone H1 (Sigma) in the presence of 10 µM ATP for 30 min at room temperature. The reactions are terminated by the addition of 50 µL of 10 mM cold ATP to stop the reactions. The reactions are transferred to a pre-soaked 96-well multi-screen plate containing 30 µL of 100% TCA per well. After incubation for one hour at room temperature, the plates are washed twice with 200 µl of 20% TCA, followed by 200 µl of 10% TCA and finally with 200 µl of 5% TCA. After drying the plates at room temperature, the filter plates are placed in adapter plates (Packard) and 40 µl of Microscint-O® (Packard) is added to each well. Top Seal A film is used to cover the plates before counting in a Top Count Scintillation Counter.
The % remained activity of the indicated Cdk/cyclin kinase complex in the presence of inhibitor is calculated by the ratio of cpm in the presence of inhibitor to cpm in the absence of inhibitor (%Activity = vi/vo x 100%).
For assay [5], the target named is cdk2/cyclin E (Homo sapiens, UniProt P24941). Nature of the assay: Cyclin-dependent kinase assay, cdk2/cyclin E. Conditions: CDK2 IC50, nM, GST-pRb substrate, 10 µM ATP.

Chain of cdk1/cyclin B (P06493 whole entry): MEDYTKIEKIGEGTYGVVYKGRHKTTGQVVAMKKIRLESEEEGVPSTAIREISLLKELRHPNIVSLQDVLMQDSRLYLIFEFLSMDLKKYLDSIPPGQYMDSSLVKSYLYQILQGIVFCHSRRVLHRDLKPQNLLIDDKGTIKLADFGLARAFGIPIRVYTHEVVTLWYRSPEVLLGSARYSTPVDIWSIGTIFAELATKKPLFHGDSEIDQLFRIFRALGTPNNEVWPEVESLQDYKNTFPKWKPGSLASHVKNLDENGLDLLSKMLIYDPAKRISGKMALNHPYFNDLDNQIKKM
Chain of cdk1/cyclin B (P14635 whole entry partner): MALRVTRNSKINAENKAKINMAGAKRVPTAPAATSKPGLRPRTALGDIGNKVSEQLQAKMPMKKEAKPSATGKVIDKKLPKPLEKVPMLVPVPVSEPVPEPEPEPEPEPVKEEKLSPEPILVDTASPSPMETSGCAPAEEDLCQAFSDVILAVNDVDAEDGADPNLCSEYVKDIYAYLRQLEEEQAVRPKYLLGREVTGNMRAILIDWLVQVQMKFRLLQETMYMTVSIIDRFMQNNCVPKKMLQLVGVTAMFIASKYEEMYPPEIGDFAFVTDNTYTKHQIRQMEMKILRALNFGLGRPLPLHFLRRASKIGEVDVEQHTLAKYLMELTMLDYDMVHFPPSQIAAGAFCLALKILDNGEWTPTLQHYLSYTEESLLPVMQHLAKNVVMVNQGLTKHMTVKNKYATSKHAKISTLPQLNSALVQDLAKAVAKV
Chain of cdk4/cyclin D1 (P11802 whole entry): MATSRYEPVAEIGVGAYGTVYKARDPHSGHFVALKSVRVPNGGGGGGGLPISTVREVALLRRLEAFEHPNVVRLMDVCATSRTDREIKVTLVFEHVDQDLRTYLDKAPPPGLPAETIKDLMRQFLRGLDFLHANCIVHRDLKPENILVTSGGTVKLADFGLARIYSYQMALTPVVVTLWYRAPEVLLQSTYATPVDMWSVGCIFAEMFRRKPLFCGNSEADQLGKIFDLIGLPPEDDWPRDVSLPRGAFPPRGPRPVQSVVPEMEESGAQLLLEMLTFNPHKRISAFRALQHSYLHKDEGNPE
Chain of cdk4/cyclin D1 (P24385 whole entry partner): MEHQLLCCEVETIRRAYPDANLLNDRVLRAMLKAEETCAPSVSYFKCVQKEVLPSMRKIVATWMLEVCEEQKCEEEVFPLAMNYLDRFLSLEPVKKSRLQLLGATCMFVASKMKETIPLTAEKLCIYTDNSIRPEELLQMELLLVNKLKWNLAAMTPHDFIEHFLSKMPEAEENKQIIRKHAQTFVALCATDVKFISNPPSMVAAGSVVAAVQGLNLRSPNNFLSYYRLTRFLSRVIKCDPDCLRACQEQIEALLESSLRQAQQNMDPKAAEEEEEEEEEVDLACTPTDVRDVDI

For `CCCCCC(=O)N1CCC(Nc2nc(N[C@H]3CC[C@H](N)CC3)nc3c2ncn3C2CCCC2)CC1` [compound 54, trans-1-{4-[2-(4-Amino-cyclohexylamino)-9-cyclopentyl-9H-purin-6-ylamino]-piperidin-1-yl}-hexan-1-one dihydrochloride], the IC50 turned out to be 315 nM in assay [1]; 0.6 µM in assay [2]; 0.59 µM in assay [3]; 45 nM in assay [4]; 49 nM in assay [5].
As for `N[C@H]1CC[C@H](Nc2nc(NC3CCN(C(=O)C4CCCCC4)CC3)c3ncn(C4CCCC4)c3n2)CC1` [compound 55, trans-1-{4-[2-(4-Amino-cyclohexylamino)-9-cyclopentyl-9H-purin-6-ylamino]-piperidin-1-yl}-1-cyclohexyl-methanone dihydrochloride], the IC50 in assay [1] is 621 nM; in assay [2], 0.41 µM; in assay [3], 0.57 µM; in assay [4], 99 nM; in assay [5], 56 nM.
Regarding `CCCCC(=O)N1CCC(Nc2nc(N[C@H]3CC[C@H](N)CC3)nc3c2ncn3C2CCCC2)CC1` [compound 56, trans-1-{4-[2-(4-Amino-cyclohexylamino)-9-cyclopentyl-9H-purin-6-ylamino]-piperidin-1-yl}-pentan-1-one dihydrochloride], the IC50 in assay [1] amounted to 909 nM; in assay [2], 0.61 µM; in assay [3], 0.69 µM; in assay [4], 43 nM; in assay [5], 53 nM.
Turning to `CCCC(=O)N1CCC(Nc2nc(N[C@H]3CC[C@H](N)CC3)nc3c2ncn3C2CCCC2)CC1` [compound 58, trans-1-{4-[2-(4-Amino-cyclohexylamino)-9-cyclopentyl-9H-purin-6-ylamino]-piperidin-1-yl}-butan-1-one dihydrochloride], the IC50 in assay [1] is 357 nM; in assay [2], 1.01 µM; in assay [3] it was 0.94 µM; in assay [4] it was 52 nM; in assay [5], 68 nM.
Take `CC(C)C(=O)N1CCC(Nc2nc(N[C@H]3CC[C@H](N)CC3)nc3c2ncn3C2CCCC2)CC1` [compound 59, trans-1-{4-[2-(4-Amino-cyclohexylamino)-9-cyclopentyl-9H-purin-6-ylamino]-piperidin-1-yl) -2-methyl-propan-1-one dihydrochloride]: the IC50 in assay [1] came to 721 nM; in assay [2], 0.62 µM; in assay [3], 0.96 µM; in assay [4] it was 93 nM; in assay [5], 52 nM.
For the molecule `CC(C)CC(=O)N1CCC(Nc2nc(N[C@H]3CC[C@H](N)CC3)nc3c2ncn3C2CCCC2)CC1` [compound 60, trans-1-{4-[2-(4-Amino-cyclohexylamino)-9-cyclopentyl-9H-purin-6-ylamino]-piperidin-1-yl}-3-methyl-butan-1-one dihydrochloride], the IC50 in assay [1] stood at 91 nM; in assay [2], 0.69 µM; in assay [3], 0.65 µM; in assay [4] it was 83 nM; in assay [5], 37 nM.
The like results for `N[C@H]1CC[C@H](Nc2nc(NC3CCN(C(=O)Cc4cccs4)CC3)c3ncn(C4CCCC4)c3n2)CC1` [compound 61, trans-1-{4-[2-(4-Amino-cyclohexylamino)-9-cyclopentyl-9H-purin-6-ylamino]-piperidin-1-yl}-2-thiophen-2-yl-ethanone dihydrochloride] were, in that order, 750 nM, 0.61 µM, 0.58 µM, 40 nM and 38 nM.
The like results for `N[C@H]1CC[C@H](Nc2nc(NC3CCN(C(=O)C4CC4)CC3)c3ncn(C4CCCC4)c3n2)CC1` [compound 64, trans-1-{4-[2-(4-Amino-cyclohexylamino)-9-cyclopentyl-9H-purin-6-ylamino]-piperidin-1-yl}-1-cyclopropyl-methanone dihydrochloride] were, in that order, 593 nM, 1.13 µM, 1.03 µM, 65 nM and 62 nM.
For `COCC(=O)N1CCC(Nc2nc(N[C@H]3CC[C@H](N)CC3)nc3c2ncn3C2CCCC2)CC1` [compound 65, trans-1-{4-[2-(4-Amino-cyclohexylamino)-9-cyclopentyl-9H-purin-6-ylamino]-piperidin-1-yl}-2-methoxy-ethanone dihydrochloride], the IC50 in assay [1] worked out at 764 nM; in assay [2] it was 3.09 µM; in assay [3], 3.29 µM; in assay [4] it was 72 nM; in assay [5] it was 50 nM.
As for `N[C@H]1CC[C@H](Nc2nc(NC3CCN(C(=O)c4cccc5c4-c4ccccc4C5=O)CC3)c3ncn(C4CCCC4)c3n2)CC1` [compound 66, trans-4-(1-{4-[2-(4-Amino-cyclohexylamino)-9-cyclopentyl-9H-purin-6-ylamino]-piperidin-1-yl}-methanoyl)-fluoren-9-one], the IC50 in assay [1] stood at 1720 nM; in assay [2] it was 1.66 µM; in assay [3] it was 1.93 µM; in assay [4] it was 234 nM; in assay [5], 325 nM.
Turning to `N[C@H]1CC[C@H](Nc2nc(NC3CCN(C(=O)c4cccnc4)CC3)c3ncn(C4CCCC4)c3n2)CC1` [compound 67, trans-1-{4-[2-(4-Amino-cyclohexylamino)-9-cyclopentyl-9H-purin-6-ylamino]-piperidin-1-yl}-1-pyridin-3-yl-methanone], the IC50 in assay [1] amounted to 3150 nM; in assay [2], 50 µM; in assay [3] it was 38 µM; in assay [4] it was 824 nM; in assay [5], 441 nM.
Consider `N[C@H]1CC[C@H](Nc2nc(NC3CCN(C(=O)c4ccncc4)CC3)c3ncn(C4CCCC4)c3n2)CC1` [compound 68, trans-1-{4-[2-(4-Amino-cyclohexylamino)-9-cyclopentyl-9H-purin-6-ylamino]-piperidin-1-yl}-1-pyridin-4-yl-methanone], for which the IC50 in assay [1] was 1440 nM; in assay [2], 21 µM; in assay [3], 16 µM; in assay [4] it was 136 nM; in assay [5], 84 nM.
For `N[C@H]1CC[C@H](Nc2nc(NC3CCN(C(=O)c4cc(C(F)(F)F)ccc4F)CC3)c3ncn(C4CCCC4)c3n2)CC1` [compound 69, trans-1-{4-[2-(4-Amino-cyclohexylamino)-9-cyclopentyl-9H-purin-6-ylamino]-piperidin-1-yl}-1-(2-fluoro-5-trifluoromethyl-phenyl)-methanone] the same measures were 852 nM, 0.48 µM, 0.35 µM, 48 nM and 84 nM.
As for `Cc1ccccc1C(=O)N1CCC(Nc2nc(N[C@H]3CC[C@H](N)CC3)nc3c2ncn3C2CCCC2)CC1` [compound 70, trans-1-{4-[2-(4-Amino-cyclohexylamino)-9-cyclopentyl-9H-purin-6-ylamino]-piperidin-1-yl}-1-(2-methyl-phenyl)-methanone], the IC50 in assay [1] came to 4510 nM; in assay [2], 4.6 µM; in assay [3], 4.4 µM; in assay [4], 277 nM; in assay [5] it was 430 nM.
